This passage reports IC50 results from patent publication US9783536B2, “Nitrogen-containing heterocyclic compound or salt thereof” (FUJIFILM Corporation, priority 2013, dated 2017).

Holding throughout (assay type): biochemical
One experiment addresses T1, human PI3Kα protein (Homo sapiens, UniProt P42336).
T1 construct: purchased Carna Biosciences, Inc; host or cells: baculovirus expression system
Nature of the experiment: PI3Kα enzyme assay (ADP-Glo). As to conditions: read-out: PI3Kα enzyme inhibitory activity. An outline of the steps: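 Biotinylated human PI3Kα (baculovirus-expressed, 4.5 nmol/L) pre-incubated 15 min with compound in Tris-HCl pH 7.5, MgCl2, BSA; reaction 60 min at 25° C with 50 μmol/L PIP2 and 100 μmol/L ATP final. ADP quantified by ADP-Glo luminescence; IC50 calculated.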
In general terms: ADP-Glo first removes unused ATP, then detects ADP through luciferase.

Experiment [1] deals with T2, GST fusion human ERK2 protein (Homo sapiens, UniProt P28482).
T2 construct: purchased Carna Biosciences, Inc; host or cells: E. coli expression system
As to the kind of experiment: ERK2 enzyme assay (1). Particulars: read-out: ERK2 enzyme inhibitory activity (1). Summed up: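 IC50 derived from the proportion of phosphorylated 5-FAM peptide, separated from unphosphorylated peptide by microfluidic mobility shift. Compound was first preincubated 15 min at room temperature with 2.5 nmol/L kinase at pH 7.5, then 43.1 μmol/L ATP plus 4.25 μmol/L substrate reacted 120 min at 25 °C.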

Experiment [2] addresses T2, GST fusion human ERK2 protein. As to the kind of experiment: ERK2 enzyme assay (2). Particulars: read-out: ERK2 enzyme inhibitory activity (2). Summed up:
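IC50 values come from mobility-shift measurement of phosphorylated versus unphosphorylated 5-FAM peptide substrate after EDTA quench. Beforehand, compound and 1.25 nmol/L E. coli-expressed GST–human ERK2 stood 15 min at room temperature (pH 7.5), then 1 mmol/L ATP and 4.25 μmol/L substrate (final) were added for 120 min at 25 °C.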

Each structure is given as a SMILES string. Where a name gives a salt, the structure may show the parent alone. Read-outs that look alike come from different tables or passages of the source.

T1 sequence (P42336 whole entry): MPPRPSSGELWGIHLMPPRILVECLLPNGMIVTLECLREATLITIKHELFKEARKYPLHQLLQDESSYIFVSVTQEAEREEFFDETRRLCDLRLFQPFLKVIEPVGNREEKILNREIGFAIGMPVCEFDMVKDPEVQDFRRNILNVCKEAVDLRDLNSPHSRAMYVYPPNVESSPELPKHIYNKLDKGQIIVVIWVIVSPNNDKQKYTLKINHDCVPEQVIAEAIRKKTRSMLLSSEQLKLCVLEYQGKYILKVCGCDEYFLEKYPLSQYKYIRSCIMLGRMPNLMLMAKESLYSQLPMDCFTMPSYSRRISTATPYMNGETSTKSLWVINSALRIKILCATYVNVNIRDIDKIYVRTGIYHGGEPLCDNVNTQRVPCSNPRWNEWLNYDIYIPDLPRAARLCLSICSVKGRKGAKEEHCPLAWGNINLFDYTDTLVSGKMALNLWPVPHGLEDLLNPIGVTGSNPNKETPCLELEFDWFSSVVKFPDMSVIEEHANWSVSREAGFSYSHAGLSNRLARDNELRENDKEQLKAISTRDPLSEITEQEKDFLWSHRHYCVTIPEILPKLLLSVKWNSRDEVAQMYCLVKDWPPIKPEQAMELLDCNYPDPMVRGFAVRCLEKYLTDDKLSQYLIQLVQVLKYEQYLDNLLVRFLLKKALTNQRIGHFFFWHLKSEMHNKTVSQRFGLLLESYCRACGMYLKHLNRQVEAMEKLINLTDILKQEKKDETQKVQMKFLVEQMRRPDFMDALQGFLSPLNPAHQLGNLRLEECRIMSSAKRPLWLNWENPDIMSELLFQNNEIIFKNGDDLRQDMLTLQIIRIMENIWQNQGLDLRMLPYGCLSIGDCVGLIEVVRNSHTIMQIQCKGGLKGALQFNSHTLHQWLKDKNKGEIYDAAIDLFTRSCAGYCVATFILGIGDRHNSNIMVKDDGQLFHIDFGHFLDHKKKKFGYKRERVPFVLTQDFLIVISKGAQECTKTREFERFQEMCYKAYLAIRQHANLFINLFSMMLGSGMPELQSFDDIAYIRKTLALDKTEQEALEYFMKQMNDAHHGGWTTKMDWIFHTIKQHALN
T1 sequence (P27986 whole entry partner): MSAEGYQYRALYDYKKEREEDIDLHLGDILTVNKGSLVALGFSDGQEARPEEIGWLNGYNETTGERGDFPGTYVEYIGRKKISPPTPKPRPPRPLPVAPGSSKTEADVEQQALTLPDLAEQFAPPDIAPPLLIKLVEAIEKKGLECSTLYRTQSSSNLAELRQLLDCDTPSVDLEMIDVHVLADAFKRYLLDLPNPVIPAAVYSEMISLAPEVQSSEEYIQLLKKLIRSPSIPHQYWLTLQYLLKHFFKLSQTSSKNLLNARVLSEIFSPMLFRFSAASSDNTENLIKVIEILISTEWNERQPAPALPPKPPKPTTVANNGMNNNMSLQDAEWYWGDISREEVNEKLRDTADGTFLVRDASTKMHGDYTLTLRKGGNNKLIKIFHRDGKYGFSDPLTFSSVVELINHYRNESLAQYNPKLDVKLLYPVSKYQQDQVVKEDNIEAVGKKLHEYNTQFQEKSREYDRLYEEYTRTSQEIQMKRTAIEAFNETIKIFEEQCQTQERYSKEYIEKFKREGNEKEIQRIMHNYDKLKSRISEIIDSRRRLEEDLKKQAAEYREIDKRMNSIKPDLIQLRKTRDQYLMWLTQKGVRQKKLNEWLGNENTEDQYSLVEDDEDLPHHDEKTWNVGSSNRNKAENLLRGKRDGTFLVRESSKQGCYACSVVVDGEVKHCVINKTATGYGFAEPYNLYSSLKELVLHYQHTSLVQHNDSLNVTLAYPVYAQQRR
T2 sequence (P28482 whole entry, the tested form may be a part): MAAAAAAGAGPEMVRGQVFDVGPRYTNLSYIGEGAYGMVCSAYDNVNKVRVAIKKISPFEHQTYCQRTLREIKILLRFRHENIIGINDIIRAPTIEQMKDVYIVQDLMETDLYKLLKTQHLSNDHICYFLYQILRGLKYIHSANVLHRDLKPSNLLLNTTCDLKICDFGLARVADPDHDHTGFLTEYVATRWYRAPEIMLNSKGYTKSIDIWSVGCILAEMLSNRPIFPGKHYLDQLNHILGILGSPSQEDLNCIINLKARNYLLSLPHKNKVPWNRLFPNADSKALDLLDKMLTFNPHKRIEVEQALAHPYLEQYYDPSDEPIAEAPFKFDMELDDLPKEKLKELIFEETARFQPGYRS

Take `CNS(=O)(=O)c1nnc(Nc2ccc3ncc(-c4cnn(C)c4)cc3n2)s1` [Example 0189, methyl ((5-((7-(1-methyl-1H-pyrazol-4-yl)-1,5-naphthyridin-2-yl)amino)-1,3,4-thiadiazol-2-yl)sulfonyl)amide sodium salt]: the IC50 is less than 1 µM at human PI3Kα protein (4.5 nmol/L PI3Kα, PIP2 50 μmol/L, ATP 100 μmol/L); less than 1 µM in experiment [1] (2.5 nmol/L ERK2, ATP 43.1 μmol/L); less than 1 µM in experiment [2] (1.25 nmol/L ERK2, ATP 1 mmol/L).

Regarding `Cc1n[nH]c(C)c1-c1cnc2ccc(Nc3nnc(C4CCCC4)s3)nc2c1` [Example 0215], the values for the IC50 (on human PI3Kα protein; in experiment [1] (ERK2 enzyme assay (1)); in experiment [2] (ERK2 enzyme assay (2))) were 1 to 10 µM, less than 1 µM and less than 1 µM, respectively.

Regarding `c1nc2ccc(Nc3nnc(C4CCC4)s3)nc2cc1-c1cnn(CCCN2CCCC2)c1` [Example 0235], the IC50 (at human PI3Kα protein; in experiment [1] (ERK2 enzyme assay (1)); in experiment [2] (ERK2 enzyme assay (2))) was less than 1 µM in each case.

As for `c1nc2ccc(Nc3nnc(C4CCCCC4)s3)nc2cc1-c1cnn(CCCN2CCCC2)c1` [Example 0236], the IC50 (at human PI3Kα protein; in experiment [1] (ERK2 enzyme assay (1)); in experiment [2] (ERK2 enzyme assay (2))) was less than 1 µM each time.

For `CCOC(=O)Cc1nnc(Nc2ccc3ncc(-c4cnn(CCCN5CCCC5)c4)cc3n2)s1` [Example 0242, ethyl (5-((7-(1-(3-(pyrrolidin-1-yl)propyl)-1H-pyrazol-4-yl)-1,5-naphthyridin-2-yl)amino)-1,3,4-thiadiazol-2-yl)acetate], the IC50 (on human PI3Kα protein; in experiment [1] (ERK2 enzyme assay (1)); in experiment [2] (ERK2 enzyme assay (2))) was less than 1 µM each time.

On to `Cn1cc(-c2cnc3ccc(Nc4nnc(C5CCCN5)s4)nc3c2)cn1` (stereo not drawn) [Example 0246, N-(7-(1-methyl-1H-pyrazol-4-yl)-1,5-naphthyridin-2-yl)-5-(pyrrolidin-2-yl)-1,3,4-thiadiazole-2-amine], for which the results for the IC50 (at human PI3Kα protein; in experiment [1] (ERK2 enzyme assay (1)); in experiment [2] (ERK2 enzyme assay (2))) were 1 to 10 µM, less than 1 µM and less than 1 µM, respectively.

For the molecule `CC(=O)N1CCCC1c1nnc(Nc2ccc3ncc(-c4cnn(C)c4)cc3n2)s1` (stereo not drawn) [Example 0248, 1-(2-(5-((7-(1-methyl-1H-pyrazol-4-yl)-1,5-naphthyridin-2-yl)amino)-1,3,4-thiadiazol-2-yl)pyrrolidin-1-yl)ethanone], the figures for the IC50 (on human PI3Kα protein; in experiment [1] (ERK2 enzyme assay (1)); in experiment [2] (ERK2 enzyme assay (2))) were 1 to 10 µM, less than 1 µM and less than 1 µM, respectively.

As to `Cn1cc(-c2cnc3ccc(Nc4nnc(C5CCNC5)s4)nc3c2)cn1` (stereo not drawn) [Example 0251], the IC50 is 1 to 10 µM on human PI3Kα protein, less than 1 µM in experiment [1] (ERK2 enzyme assay (1)) and less than 1 µM in experiment [2] (ERK2 enzyme assay (2)).

Consider `CN1CCC(c2nnc(Nc3ccc4ncc(-c5cnn(C)c5)cc4n3)s2)C1` (stereo not drawn) [Example 0252, N-(7-(1-methyl-1H-pyrazol-4-yl)-1,5-naphthyridin-2-yl)-5-(1-methylpyrrolidin-3-yl)-1,3,4-thiadiazole-2-amine], for which the IC50 on human PI3Kα protein is 1 to 10 µM; in experiment [1] (ERK2 enzyme assay (1)), less than 1 µM; in experiment [2] (ERK2 enzyme assay (2)), less than 1 µM.

Consider `CC(=O)N1CCC(c2nnc(Nc3ccc4ncc(-c5cnn(C)c5)cc4n3)s2)C1` (stereo not drawn) [Example 0253, 1-(3-(5-((7-(1-Methyl-1H-pyrazol-4-yl)-1,5-naphthyridin-2-yl)amino)-1,3,4-thiadiazol-2-yl)pyrrolidin-1-yl)ethanone], for which the IC50 was 1 to 10 µM at human PI3Kα protein, less than 1 µM in experiment [1] (ERK2 enzyme assay (1)) and less than 1 µM in experiment [2] (ERK2 enzyme assay (2)).

For the molecule `Cn1cc(-c2cnc3ccc(Nc4nnc(CS(C)(=O)=O)s4)nc3c2)cn1` [Example 0257, N-(7-(1-methyl-1H-pyrazol-4-yl)-1,5-naphthyridin-2-yl)-5-((methylsulfonyl)methyl)-1,3,4-thiadiazole-2-amine], the figures for the IC50 (at human PI3Kα protein; in experiment [1] (ERK2 enzyme assay (1)); in experiment [2] (ERK2 enzyme assay (2))) were 1 to 10 µM, less than 1 µM and less than 1 µM, respectively.

Consider `CS(=O)(=O)Cc1nnc(Nc2ccc3ncc(-c4cnn(CCCN5CCCC5)c4)cc3n2)s1` [Example 0258], for which the IC50 (on human PI3Kα protein; in experiment [1] (ERK2 enzyme assay (1)); in experiment [2] (ERK2 enzyme assay (2))) was less than 1 µM in each case.

For `c1ccc(Cc2nnc(Nc3ccc4ncc(-c5cnn(CCCN6CCCC6)c5)cc4n3)s2)nc1` [Example 0261], the IC50 (at human PI3Kα protein; in experiment [1] (ERK2 enzyme assay (1)); in experiment [2] (ERK2 enzyme assay (2))) was less than 1 µM in each case.

With `c1cncc(Cc2nnc(Nc3ccc4ncc(-c5cnn(CCCN6CCCC6)c5)cc4n3)s2)c1` [Example 0262], the IC50 (at human PI3Kα protein; in experiment [1] (ERK2 enzyme assay (1)); in experiment [2] (ERK2 enzyme assay (2))) was less than 1 µM in each case.

On to `CC(C)Cc1nnc(Nc2ccc3ncc(-c4cnn(CCCN5CCCC5)c4)cc3n2)s1` [Example 0265], for which the IC50 (at human PI3Kα protein; in experiment [1] (ERK2 enzyme assay (1)); in experiment [2] (ERK2 enzyme assay (2))) was less than 1 µM each time.

As for `c1cc(Cc2nnc(Nc3ccc4ncc(-c5cnn(CCCN6CCCC6)c5)cc4n3)s2)ccn1` [Example 0266], the IC50 (on human PI3Kα protein; in experiment [1] (ERK2 enzyme assay (1)); in experiment [2] (ERK2 enzyme assay (2))) was less than 1 µM in each case.

Turning to `c1nc2ccc(Nc3nnc(CC4CCOC4)s3)nc2cc1-c1cnn(CCCN2CCCC2)c1` (stereo not drawn) [Example 0267], the IC50 (at human PI3Kα protein; in experiment [1] (ERK2 enzyme assay (1)); in experiment [2] (ERK2 enzyme assay (2))) was less than 1 µM each time.

As to `c1cc(-c2ccnc3ccc(Nc4nnc(CC5CCCO5)s4)nc23)ccn1` (stereo not drawn) [Example 0276], the IC50 was less than 1 µM at human PI3Kα protein, less than 1 µM in experiment [1] (ERK2 enzyme assay (1)) and 1 to 10 µM in experiment [2] (ERK2 enzyme assay (2)).

In the case of `CC(C)(C)c1cnnc(Nc2ccc3ncc(-c4cnn(CCCN5CCCC5)c4)cc3n2)c1` [Example 0290], the IC50 (at human PI3Kα protein; in experiment [1] (ERK2 enzyme assay (1)); in experiment [2] (ERK2 enzyme assay (2))) was less than 1 µM throughout.

Consider `CC(C)Cc1cnnc(Nc2ccc3ncc(-c4cnn(CCCN5CCCC5)c4)cc3n2)c1` [Example 0292], for which the IC50 (at human PI3Kα protein; in experiment [1] (ERK2 enzyme assay (1)); in experiment [2] (ERK2 enzyme assay (2))) was less than 1 µM in each case.

In the case of `CCC(C)c1cnnc(Nc2ccc3ncc(-c4cnn(CCCN5CCCC5)c4)cc3n2)c1` (stereo not drawn) [Example 0294], the IC50 (at human PI3Kα protein; in experiment [1] (ERK2 enzyme assay (1)); in experiment [2] (ERK2 enzyme assay (2))) was less than 1 µM in each case.

With `c1nc2ccc(Nc3cc(C4CC4)cnn3)nc2cc1-c1cnn(CCCN2CCCC2)c1` [Example 0295, N-(5-cyclopropylpyridazin-3-yl)-7-(1-(3-(pyrrolidin-1-yl)propyl)-1H-pyrazol-4-yl)-1,5-naphthyridine-2-amine], the IC50 (on human PI3Kα protein; in experiment [1] (ERK2 enzyme assay (1)); in experiment [2] (ERK2 enzyme assay (2))) was less than 1 µM each time.

For `c1nc2ccc(Nc3nnc(C4CCCC4)s3)nc2cc1-c1cnn(CCCN2CCNCC2)c1` [Example 0303, 5-cyclopentyl-N-(7-(1-(3-(piperazin-1-yl)propyl)-1H-pyrazol-4-yl)-1,5-naphthyridin-2-yl)-1,3,4-thiadiazole-2-amine], the IC50 (on human PI3Kα protein; in experiment [1] (ERK2 enzyme assay (1)); in experiment [2] (ERK2 enzyme assay (2))) was less than 1 µM each time.

Take `c1nc2ccc(Nc3nnc(C4CCCC4)s3)nc2cc1N1CCOCC1` [Example 0311, 5-cyclopentyl-N-(7-morpholino-1,5-naphthyridin-2-yl)-1,3,4-thiadiazole-2-amine]: the IC50 at human PI3Kα protein was 1 to 10 µM; in experiment [1] (ERK2 enzyme assay (1)), less than 1 µM; in experiment [2] (ERK2 enzyme assay (2)), less than 1 µM.

For the molecule `CN1CCC(n2cc(-c3cnc4ccc(Nc5nnc(C6CCCC6)s5)nc4c3)cn2)CC1` [Example 0318, 5-cyclopentyl-N-(7-(1-(1-methylpiperidin-4-yl)-1H-pyrazol-4-yl)-1,5-naphthyridin-2-yl)-1,3,4-thiadiazole-2-amine], the IC50 (on human PI3Kα protein; in experiment [1] (ERK2 enzyme assay (1)); in experiment [2] (ERK2 enzyme assay (2))) was less than 1 µM in each case.

For the molecule `c1nc2ccc(Nc3nnc(C4CCCC4)s3)nc2cc1-c1cnn(CCCN2CCCC2)c1` [Example 0320], the IC50 (at human PI3Kα protein; in experiment [1] (ERK2 enzyme assay (1)); in experiment [2] (ERK2 enzyme assay (2))) was less than 1 µM throughout.

Turning to `C1=C(c2cnc3ccc(Nc4nnc(C5CCCC5)s4)nc3c2)CCOC1` [Example 0327], the IC50 was 1 to 10 µM on human PI3Kα protein, less than 1 µM in experiment [1] (ERK2 enzyme assay (1)) and less than 1 µM in experiment [2] (ERK2 enzyme assay (2)).

Regarding `OCCN1CCC(n2cc(-c3cnc4ccc(Nc5nnc(C6CCCC6)s5)nc4c3)cn2)CC1` [Example 0336, 2-(4-(4-(6-((5-cyclopentyl-1,3,4-thiadiazol-2-yl)amino)-1,5-naphthyridin-3-yl)-1H-pyrazol-1-yl)piperidin-1-yl)ethanol], the IC50 (on human PI3Kα protein; in experiment [1] (ERK2 enzyme assay (1)); in experiment [2] (ERK2 enzyme assay (2))) was less than 1 µM each time.

In the case of `OCCCN1CCC(n2cc(-c3cnc4ccc(Nc5nnc(C6CCCC6)s5)nc4c3)cn2)CC1` [Example 0337, 3-(4-(4-(6-((5-Cyclopentyl-1,3,4-thiadiazol-2-yl)amino)-1,5-naphthyridin-3-yl)-1H-pyrazol-1-yl)piperidin-1-yl)propan-1-ol], the IC50 (at human PI3Kα protein; in experiment [1] (ERK2 enzyme assay (1)); in experiment [2] (ERK2 enzyme assay (2))) was less than 1 µM in each case.

For `COCCCn1cc(-c2cnc3ccc(Nc4nnc(C5CCCC5)s4)nc3c2)cn1` [Example 0339, 5-cyclopentyl-N-(7-(1-(3-methoxypropyl)-1H-pyrazol-4-yl)-1,5-naphthyridin-2-yl)-1,3,4-thiadiazole-2-amine], the IC50 (on human PI3Kα protein; in experiment [1] (ERK2 enzyme assay (1)); in experiment [2] (ERK2 enzyme assay (2))) was less than 1 µM throughout.
